Experiment [1] concerns the target T1, Replicase polyprotein 1ab (Severe acute respiratory syndrome-related coronavirus, UniProt P0C6X7). Nature of the experiment: Inhibition of SARS coronavirus main proteinase 3C-like protease.
Experiment [2] has as its target Beta-secretase 1 (Homo sapiens, UniProt P56817). Nature of the experiment: Inhibition of BACE1 (unknown origin).
Experiment [3] deals with T1, Replicase polyprotein 1ab. Nature of the experiment: Binding affinity to SARS coronavirus main proteinase 3C-like protease.
The target in experiment [4] is T2, Prostaglandin G/H synthase 1 (Homo sapiens, UniProt P23219). Briefly: Inhibition of human recombinant COX1 expressed in Sf9 cell microsomes assessed as reduction in conversion of arachidonic acid to PGE2 at 250 uM incubated for 5 mins by HTRF assay.
Experiment [5] concerns Mycobacterium tuberculosis. Nature of the experiment: Inhibition of Mycobacterium tuberculosis InhA at 80 uM using DD-CoA and NADH.
Experiment [6] concerns Mycobacterium tuberculosis. Briefly: Antimicrobial activity against Mycobacterium tuberculosis str. Erdman assessed as complete inhibition of growth incubated for 14 days by microplate assay. Format: functional. The conditions noted are these: Erdman = ATCC 35801, 336 h.
For experiment [7], the target named is T2, Prostaglandin G/H synthase 1. Nature of the experiment: Inhibition of human recombinant COX1 expressed in Sf9 cell microsomes assessed as reduction in conversion of arachidonic acid to PGE2 incubated for 5 mins by HTRF assay.
Experiment [8] concerns the target Acetylcholinesterase (Homo sapiens, UniProt P22303). Nature of the experiment: Inhibition of AChE (unknown origin).

Molecules are shown by their SMILES. In brackets after ≈: the same amount, converted by molar mass. A value given as a limit tells only on which side of the number the result lay.

The values that follow come from ChEMBL document CHEMBL3817815, “Impact of Binding Site Comparisons on Medicinal Chemistry and Rational Molecular Design” (J Med Chem, 2016).

T2 sequence (P23219 whole entry): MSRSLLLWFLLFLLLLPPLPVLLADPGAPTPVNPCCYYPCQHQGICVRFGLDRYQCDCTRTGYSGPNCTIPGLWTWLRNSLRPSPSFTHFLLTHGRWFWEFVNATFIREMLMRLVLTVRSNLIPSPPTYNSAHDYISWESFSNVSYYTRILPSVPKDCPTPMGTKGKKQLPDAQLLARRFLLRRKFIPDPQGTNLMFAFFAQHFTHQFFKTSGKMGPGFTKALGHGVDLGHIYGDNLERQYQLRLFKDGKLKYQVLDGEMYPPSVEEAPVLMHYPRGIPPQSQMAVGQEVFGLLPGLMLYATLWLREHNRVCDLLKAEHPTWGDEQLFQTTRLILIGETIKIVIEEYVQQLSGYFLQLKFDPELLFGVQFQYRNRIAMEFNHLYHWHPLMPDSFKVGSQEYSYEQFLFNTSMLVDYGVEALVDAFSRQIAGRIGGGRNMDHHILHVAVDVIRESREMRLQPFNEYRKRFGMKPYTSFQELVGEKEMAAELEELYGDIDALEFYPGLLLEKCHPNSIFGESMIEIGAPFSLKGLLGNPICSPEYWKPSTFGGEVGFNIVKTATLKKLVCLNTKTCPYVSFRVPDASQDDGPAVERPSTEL
Acetylcholinesterase, sequence (P22303 whole entry): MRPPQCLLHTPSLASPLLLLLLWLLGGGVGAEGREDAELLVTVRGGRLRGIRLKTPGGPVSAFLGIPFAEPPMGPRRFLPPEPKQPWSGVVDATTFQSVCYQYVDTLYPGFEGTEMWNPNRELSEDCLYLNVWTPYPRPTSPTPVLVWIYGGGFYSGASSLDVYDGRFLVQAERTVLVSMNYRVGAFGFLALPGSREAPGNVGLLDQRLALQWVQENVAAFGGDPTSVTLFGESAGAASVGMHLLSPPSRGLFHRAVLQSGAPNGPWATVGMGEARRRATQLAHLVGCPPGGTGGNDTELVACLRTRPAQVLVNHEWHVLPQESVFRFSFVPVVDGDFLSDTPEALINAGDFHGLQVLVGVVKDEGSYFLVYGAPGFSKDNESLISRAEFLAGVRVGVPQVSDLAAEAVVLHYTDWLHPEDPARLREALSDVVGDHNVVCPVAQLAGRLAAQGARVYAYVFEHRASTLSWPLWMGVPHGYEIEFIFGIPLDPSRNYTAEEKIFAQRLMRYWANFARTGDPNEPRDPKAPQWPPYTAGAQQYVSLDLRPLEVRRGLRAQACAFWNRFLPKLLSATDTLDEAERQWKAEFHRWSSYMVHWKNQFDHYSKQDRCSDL
Beta-secretase 1, sequence (P56817 whole entry): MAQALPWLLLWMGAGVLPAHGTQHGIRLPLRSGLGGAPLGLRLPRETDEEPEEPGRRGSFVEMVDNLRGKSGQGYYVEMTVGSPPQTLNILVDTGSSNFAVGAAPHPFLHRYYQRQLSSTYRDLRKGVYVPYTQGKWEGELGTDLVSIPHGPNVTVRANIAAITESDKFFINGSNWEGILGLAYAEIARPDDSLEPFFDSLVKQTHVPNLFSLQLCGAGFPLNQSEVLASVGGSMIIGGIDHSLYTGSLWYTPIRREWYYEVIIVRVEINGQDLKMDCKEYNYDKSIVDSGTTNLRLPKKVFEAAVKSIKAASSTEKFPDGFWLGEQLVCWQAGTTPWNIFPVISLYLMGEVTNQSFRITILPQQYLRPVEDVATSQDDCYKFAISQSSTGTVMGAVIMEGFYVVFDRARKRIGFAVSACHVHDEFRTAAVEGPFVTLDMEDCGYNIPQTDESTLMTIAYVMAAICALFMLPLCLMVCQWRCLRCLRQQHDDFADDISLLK

`CC(=O)N[C@@H](CC(N)=O)C(=O)N[C@@H](CO)C(=O)N[C@H](C(=O)N[C@@H](CC(=O)O)C(=O)N[C@H](C=O)CCC(N)=O)[C@@H](C)O` displayed an IC50 in experiment [1] of 20 µM.
In experiment [2], `COc1cc2ncnc(Nc3ccc(F)c(Cl)c3)c2cc1OCCCN1CCOCC1` [GEFITINIB] yielded a half-inhibitory concentration (IC50) of 20 µM.
As to `CC(=O)N[C@@H](Cc1cnc[nH]1)C(=O)N[C@@H](CO)C(=O)N[C@H](C(=O)N[C@@H](CC(C)C)C(=O)N[C@H](C=O)CCC(N)=O)[C@@H](C)O`, in experiment [1], the IC50 is greater than 50 µM.
In experiment [3], `CC(=O)N[C@@H](CC(N)=O)C(=O)N[C@@H](CO)C(=O)N[C@@H](Cc1ccccc1)C(=O)N[C@@H](CO)C(=O)N[C@@H](CCC(N)=O)C(=O)O` registered an inhibitory constant (Ki) of 72 µM.
Turning to `CC(=O)N[C@@H](CC(=O)O)C(=O)N[C@@H](CO)C(=O)N[C@H](C(=O)N[C@@H](CC(C)C)C(=O)N[C@H](C=O)CCC(N)=O)[C@@H](C)O`, half-maximal inhibition in experiment [1] (IC50) was put at 10 µM.
Turning to `CC(=O)N[C@@H](CCC(=O)O)C(=O)N[C@@H](CO)C(=O)N[C@H](C(=O)N[C@@H](CC(C)C)C(=O)N[C@H](C=O)CCC(N)=O)[C@@H](C)O`, the Ki in experiment [3] is 8 µM. For the same compound, the IC50 in experiment [1] is 7.5 µM.
As for `CC(C)(Oc1ccc(Cl)cc1)C(=O)O`, the inhibition in experiment [4] came to 14%.
In experiment [3], `CC(=O)N[C@@H](CC(=O)O)C(=O)N[C@@H](CO)C(=O)N[C@@H](Cc1ccccc1)C(=O)N[C@@H](CC(=O)O)C(=O)N[C@@H](CCC(N)=O)C(=O)O` had a Ki of 41 µM.
`CC(=O)N[C@@H](CC(N)=O)C(=O)N[C@@H](CO)C(=O)N[C@H](C(=O)N[C@@H](CO)C(=O)N[C@H](C=O)CCC(N)=O)[C@@H](C)O` displayed an inhibition constant Ki in experiment [3] of 40 µM. Further, in experiment [1], inhibition was half-maximal at 7.5 µM (IC50).
Compound `CCN(CC)C(=O)/C(C#N)=C/c1cc(O)c(O)c([N+](=O)[O-])c1` [ENTACAPONE] registered an inhibition in experiment [5] of 47%. In addition, the MIC99 in experiment [6] was 260 µM (≈ 79.4 µg/mL).
In the case of `O=C(O)c1ccccc1O` [SALICYLIC ACID], the IC50 in experiment [7] is 500 µM.
Regarding `Cc1ccc(C)c(OCCCC(C)(C)C(=O)O)c1`, the inhibition in experiment [4] was 18%.
In experiment [8], `Cc1ccc(Nc2nccc(N(C)c3ccc4c(C)n(C)nc4c3)n2)cc1S(N)(=O)=O` [PAZOPANIB] had an IC50 of 0.93 µM.
